Results: US12629354B2, “Sustained-release pharmaceutical compositions comprising of a sedative drug and uses thereof” (TAIWAN LIPOSOME CO., LTD., priority 2018, dated 2026)
Counter-ions that a name gives are not always drawn.

Key:
[1] = plasma free dialysis bag, within 2 hours
Protocol: Two in vitro release systems were used in the study, the first system was the plasma free environment and the second system was the human plasma environment. […] Each dialysis bag was immersed in 20 mL of PBS at pH 7.4 in a 50-mL centrifuge tube and incubated at 37±1° C. water bath for 168 or 72 hours. At designated time points after incubation (1, 2, 4, 6, 24, 50, 72, 100 and 168 hours of first system and 1, 2, 4, 8, 24, 48 and 72 hours of second system), 1.0 mL aliquot from the 20-mL PBS was sampled and 1.0 mL of fresh PBS was added to replenish the sampling aliquot. Drug concentrations of the sampled aliquots at each time point were analyzed using HPLC to create the in vitro release profile of the tested formulations.

in vivo = conditions: rat
Protocol: The rats were housed in a holding room which operated on a 12-hr light/12-hr dark circadian cycle with free access to water and food.
The rats were divided into two groups (n=4 in each group), one group received intramuscular (IM) injection of 100 μg/kg of free dexmedetomidine hydrochloride, prepared by dissolving the dexmedetomidine hydrochloride in 9.4% sucrose solution with a final concentration of 250 μg/mL. The other group received IM injection of 106 μg/kg of liposomal dexmedetomidine hydrochloride, prepared according to Example 1. Blood samples were collected at 15, 30 min, 1, 2, 4, 8, 24, 48, and 72 hours post-injection. Plasma samples were obtained by centrifugation, kept frozen at −80° C. and analyzed using liquid chromatography-tandem mass spectrometry. The plasma concentrations versus time curves were analyzed using a noncompartmental analysis model in PKSolver (Comput. Methods Programs Biomed. 2010; 99(3):306-314).

guinea pigs [2] = assay: Pharmacodynamic study, pin prick test after intracutaneous injection of 4 formulations; assay type: in vivo; conditions: 1.5 mg ropivacaine with or without 0.2 μg L-DEX in the same injection
Protocol: The guinea pigs were housed in a holding room which operated on a 12-hr light/12-hr dark circadian cycle with free access to water and food.
Four guinea pigs were used in this study and each guinea pig received 4 intracutaneous injections of 4 different formulations on its back to create 4 individual wheals respectively (i.e., 4 wheals per formulation), as illustrated in FIG. 3A. […] Briefly, 339.0 mg of DMPC, 96.7 mg of cholesterol and 200.0 mg of ropivacaine were dissolved in 10 mL of tert-butanol and lyophilized. The lyophilized cake was hydrated with a 50 mM histidine solution, pH 6, to form multilamellar vesicles (MLVs) with entrapped ropivacaine (liposomal ropivacaine composition), and the concentration of ropivacaine was diluted to 15.0 mg/mL with 9.4% sucrose solution. The anesthesia effect of ropivacaine was assessed at 30 minutes (0.5 hour), 1.0, 1.5, 2.0, 2.5, 3.0, 3.5, 4.0, 5.0, 6.0, 7.0, 8.0, 10 and 24 hours post-injection. The anesthetic effect was determined by observing the guinea pig's response to stimuli around individual wheals (pin prick test). PD data obtained from the pin prick tests were analyzed using an inhibitory effect sigmoid Emax model in PKSolver (Comput Methods Programs Biomed. 2010; 99(3):306-314).

guinea pigs [3] = assay: Pharmacodynamic study, pin prick test with L-DEX or saline injected intramuscularly at a distant site; assay type: in vivo; conditions: 1.5 mg ropivacaine intracutaneous, IM saline or 2.0 μg/kg L-DEX outside the pin prick area
Protocol: Four guinea pigs were used in this study and was divided into two groups (Groups A and B). […] Each guinea pig in Group A and Group B received 4 intracutaneous injections on its back. Of the 4 intracutaneous injections, 2 injections delivered 1.5 mg of free ropivacaine each and the other two injections delivered 1.5 mg of liposomal ropivacaine composition each. The anesthetic effect of ropivacaine was assessed at 30 minutes (0.5 hour), 1.0, 1.5, 2.0, 2.5, 3.0, 3.5, 4.0, 5.0, 6.0, 7.0, 8.0 and 10 hours post-injection. The anesthetic effect was determined by observing the guinea pig's response to stimuli around individual wheals (i.e., pin prick test). PD data obtained from the pin prick tests was analyzed using an inhibitory effect sigmoid Emax model in PKSolver (Comput Methods Programs Biomed. 2010; 99(3):306-314).

[4] = female, Sprague-Dawley, im, 100 ug/kg

Structure (SMILES) | dexmedetomidine released [1] | AUC(0-inf) (in vivo; [4]) | AUC(0-t) (in vivo; [4]) | Cmax (in vivo; [4]) | half-life (in vivo; [4]) | dexmedetomidine released as indicated by AUC0-t (in vivo; female, Sprague-Dawley, im, 8 h) | dexmedetomidine in the plasma of rats (in vivo) | TE50 (time to half maximal effect) (guinea pigs [2]) | Non-response time (guinea pigs [3]) | TE50 (guinea pigs [3])
Cc1cccc([C@H](C)c2cnc[nH]2)c1C [Free Dexmedetomidine, dexmedetomidine hydrochloride] | ~100% | 35.1 ng·h/mL | 31.4 ng·h/mL | 11 ng/mL | 2.36 h | 100% | undetectable |  |  | 
CCCN1CCCC[C@H]1C(=O)Nc1c(C)cccc1C [Free Ropivacaine, ropivacaine hydrochloride monohydrate] |  |  |  |  |  |  |  | 4.5 h | 0.5 h | 1.6 h
